Consider 7 compounds from patent publication US12583851B2, “Heteroaryl-substituted pyrazine derivatives as pesticides” (Elanco Animal Health GmbH, priority 2019, dated 2026).

Format in all cases: in vivo
Assay [1] has as its system southern root-knot nematode (Meloidogyne incognita). Briefly: Meloidogyne incognita test. The conditions noted are these: 20 ppm, after 14 days. On the procedure: Meloidogyne incognita—Test
Solvent: 125.0 parts by weight of acetone
To produce a suitable preparation of active compound, 1 part by weight of active compound is mixed with the stated amount of solvent, and the concentrate is diluted with water to the desired concentration.
Vessels are filled with sand, a solution of the active ingredient, a suspension containing eggs and larvae of the southern root-knot nematode (Meloidogyne incognita) and salad seeds. The salad seeds germinate and the seedlings grow. Galls develop in the roots.
After 14 days the nematicidal activity is determined based on the percentage of gall formation. 100% means no galls were found and 0% means the number of galls found on the roots of the treated plants was equal to that in untreated control plants.

Assay [2] relates to adult cat fleas (Ctenocephalides felis). Briefly: Ctenocephalides felis in-vitro contact test, adult cat flea. The conditions noted are these: after 48 hours, read-out: efficacy (fleas dead or moribund). In short, it runs like this: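 Acetone solution coated onto glass tube walls; 900 ppm gives 5 μg/cm². Once dry, 5–10 adult fleas per tube held at room temperature for 48 h. Efficacy (%) is the share of fleas dead or moribund, i.e. unable to climb away on a 45–50° C heating plate.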

Assay [3] concerns Rhipicephalus (Boophilus) microplus larvae (strain Parkhurst, resistant against synthetic pyrethroids). Kind of assay: Rhipicephalus (Boophilus) microplus in-vitro contact test, larval cattle tick. The conditions noted are these: after 48 hours, read-out: efficacy (larvae dead or moribund); for pest or weed control at 1 µg/cm2, 100 g/ha: 1 μg/cm^2 (=100 g/ha); for pest or weed control at 5 µg/cm2, 500 g/ha: 5 μg/cm^2 (=500 g/ha). In short, it runs like this:
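Pyrethroid-resistant larvae (strain Parkhurst), 20–50 per tube, exposed by contact to a dried acetone film of compound (5 μg/cm² at 900 ppm) for 48 h at 27 °C and 85% humidity. Percent dead or moribund larvae scored from negative geotactic behaviour.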

Assay [4] has as its system larvae of the banded cucumber beetle (Diabrotica balteata). Kind of assay: Diabrotica balteata spray test. The conditions noted are these: 168 h, after 7 days, read-out: efficacy (seedling growth); for pest or weed control at 32 µg/disc, 100 g/ha: 100 g/ha (=32 μg/well); for pest or weed control at 6.4 µg/disc, 20 g/ha: 20 g/ha (=6.4 μg/well). In short, it runs like this:
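Efficacy was read 7 days after infesting each unit with 10–20 banded cucumber beetle larvae, as % of seedlings growing like untreated, uninfested controls. Before infestation, wheat seeds germinated 1 day on agar (5 per well) were sprayed with the active ingredient. The active was formulated in acetone/DMF and diluted in water containing emulsifier.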

Assay [5] relates to adult engorged female ticks (Rhipicephalus microplus). Briefly: Rhipicephalus (Boophilus) microplus injection test. The conditions noted are these: 168 h, 4 μg/animal, egg deposition after 7 days, read-out: efficacy (infertile eggs). On the procedure:
Rhipicephalus (Boophilus) microplus—Injection Test
(§1) Solvent: dimethyl sulfoxide
To produce a suitable preparation of active compound, 10 mg of active compound are dissolved in 0.5 mL solvent, and the concentrate is diluted with solvent to the desired concentration.
Five adult engorged female ticks (Rhipicephalus microplus) are injected with 1 μL compound solution into the abdomen. The ticks are transferred into replica plates and incubated in a climate chamber.
After 7 days egg deposition of fertile eggs is monitored. Eggs where fertility is not visible are stored in a climate chamber till hatching after about 42 days. An efficacy of 100% means all eggs are infertile; 0% means all eggs are fertile.

Assay [6] has as its system fall armyworm larvae (Spodoptera frugiperda). Kind of assay: Spodoptera frugiperda spray test. The conditions noted are these: 168 h, maize leaf sections, after 7 days. The gist of the method:
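Percent larval kill read at day 7, from 0% (no caterpillars dead) to 100% (all dead). Larvae were placed on dried Zea mays leaf discs previously sprayed with test preparations made from an acetone/DMF solution diluted in 1000 ppm emulsifier-containing water.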

The test system of assay [7] is adult unfed cat fleas (Ctenocephalides felis). Briefly: Ctenocephalides felis oral test. The conditions noted are these: 48 h, 100 ppm in citrated cattle blood, after 2 days. On the procedure:
Ctenocephalides felis—Oral Test
as §1
To produce a suitable preparation of active compound, 10 mg of active compound are dissolved in 0.5 mL solvent, and the concentrate is diluted with citrated cattle blood to the desired concentration.
Approximately 20 adult unfed cat fleas (Ctenocephalides felis) are placed in a flea chamber whose top and bottom is covered with gauze. A chamber whose bottom is sealed with parafilm, is filled with the blood-compound solution and placed on top of the flea chamber, so that the fleas can suck the blood. The blood chamber is heated to 37° C. whereas the flea chamber is kept at room temperature.
After 2 days mortality in % is determined. 100% means all the fleas have been killed; 0% means none of the fleas have been killed.

Assay [8] deals with adult brown dog ticks (Rhipicephalus sanguineus). Briefly: Rhipicephalus sanguineus in-vitro contact test, adult brown dog ticks. The conditions noted are these: 48 h, 5 μg/cm^2 (=500 g/ha), after 48 hours, read-out: efficacy (ticks dead or moribund). In short, it runs like this:
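Acetone solution coated on glass tube inner walls (900 ppm, giving 5 μg/cm^2); after drying, 5–10 adult ticks added and kept 48 h at room temperature. Efficacy scored as percent dead or moribund, i.e., ticks unable to climb away on a 45–50 °C heating plate within 5 min.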

Assay [9] deals with larvae of the southern green stink bug (Nezara viridula). Kind of assay: Nezara viridula spray test. The conditions noted are these: 96 h, 100 g/ha, barley plants, after 4 days. The gist of the method: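 Larva-infested barley (Hordeum vulgare) plants received a spray of test solution prepared from an acetone/DMF concentrate diluted in emulsifier-containing water (1000 ppm). Percent kill read 4 days later; 0% means no stink bugs dead.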

Assay [10] relates to adult mosquitoes Aedes aegypti strain MONHEIM. Kind of assay: Aedes aegypti test (AEDSAE surface treatment & contact assay). The conditions noted are these: 24 hours after contact, read-out: mortality (efficacy). Here is the method:
Aedes aegypti Test (AEDSAE Surface Treatment & Contact Assay)
(§2) Solvent: Aceton+2000 ppm rapeseed oil methyl ester (RME)
In order to produce a sufficient, active ingredient containing solution it is necessary to solve the test compound in the solvent-mix (acetone at 2 mg/ml/RME 2000 ppm). This solution is pipetted onto a glazed tile and after evaporation of the acetone, adult mosquitoes of the species Aedes aegypti strain MONHEIM are placed onto the dried surface. The exposure time is 30 minutes.
(§3) Mortality in percent (%) is determined 24 hours after contact of the insects to the treated surface. 100% mortality means that all tested insects are dead, whereas 0% means that no insect died.

Assay [11] concerns adult mosquitoes Anopheles funestus strain FUMOZ-R. Kind of assay: Anopheles funestus test (ANPHFU surface treatment & contact assay). The conditions noted are these: 24 hours after contact, read-out: mortality (efficacy). Here is the method: Anopheles funestus Test (ANPHFU Surface Treatment & Contact Assay)
as §2
In order to produce a sufficient, active ingredient containing solution it is necessary to solve the test compound in the solvent-mix (acetone at 2 mg/ml/RME 2000 ppm). This solution is pipetted onto a glazed tile and after evaporation of the acetone, adult mosquitoes of the species Anopheles funestus strain FUMOZ-R (Hunt et al., Med. Vet. Entomol. 2005 Sep. 19(3): 271-275) are placed onto the dried surface. The exposure time is 30 minutes.
as §3

Setting [12] is: surface concentration 4 mg/m^2, 30 minutes exposure.
Setting [13] is: surface concentration 20 mg/m^2, 30 minutes exposure.

With `CC(NC(=O)c1cc(C(F)(F)F)cc(C(F)(F)F)c1)c1nccnc1-c1ncc(C#N)s1` (racemic) [Example I-82, (rac)-N-{1-[3-(5-Cyano-1,3-thiazol-2-yl)pyrazin-2-yl]ethyl}-3,5-bis(trifluoromethyl)benzamide], the “nematicidal activity (based on gall formation)” value (shortened to “nematicidal activity”) in assay [1] was 100%. Also, the pest or weed control at 1 µg/cm2, 100 g/ha in assay [2] (1 μg/cm^2 (=100 g/ha)) and in assay [3] was 100% in each case. The pest or weed control at 5 µg/cm2, 500 g/ha in assay [2] (5 μg/cm^2 (=500 g/ha)) and in [3] was 100% in each case. Also, the pest or weed control at 32 µg/disc, 100 g/ha in assay [4] was determined as 100%.
Regarding `CC(NC(=O)c1cc(Cl)cc(OC(F)(F)F)c1)c1nccnc1-c1nccs1` (racemic) [Example I-52, (rac)-3-Chloro-N-{1-[3-(1,3-thiazol-2-yl)pyrazin-2-yl]ethyl}-5-(trifluoromethoxy)benzamide], the “nematicidal activity” value in assay [1] is given as 90%. Further, in assay [4], the pest or weed control at 6.4 µg/disc, 20 g/ha was found to be 100% and the pest or weed control at 32 µg/disc, 100 g/ha was found to be 100%.
For the compound `CC(NC(=O)c1cc(Br)cc(OC(F)(F)F)c1)c1nccnc1-c1ccccn1` (centres unmarked) [Example I-17], the “nematicidal activity” value in assay [1] was determined as 90%. For the same compound, the pest or weed control at 0.004 mg in assay [5] was 100%. In assay [3], the pest or weed control at 1 µg/cm2, 100 g/ha is 80% and the pest or weed control at 5 µg/cm2, 500 g/ha came out at 90%. Further, the mortality at 100 g/ha in [6] came to 83%. Further, in [4], the pest or weed control at 6.4 µg/disc, 20 g/ha came to 100% and the pest or weed control at 32 µg/disc, 100 g/ha was 100%. In assay [7], the mortality at 100 ppm came to 100%.
Take `CC(NC(=O)c1cc(C(F)(F)F)cc(C(F)(F)F)c1)c1nccnc1-c1ncc(C(=O)N(CC2CC2)C(C)C)s1` (racemic) [Example I-63, (rac)-2-(3-{1-[3,5-Bis(trifluoromethyl)benzamido]ethyl}pyrazin-2-yl)-N-(cyclopropylmethyl)-N-(propan-2-yl)-1,3-thiazole-5-carboxamide]: the “nematicidal activity” value in assay [1] is given as 90%. Moreover, in assay [5], the pest or weed control at 0.004 mg turned out to be 100%. The mortality at 100 g/ha in assay [6] amounted to 100%. In assay [4], the pest or weed control at 6.4 µg/disc, 20 g/ha came out at 100% and the pest or weed control at 32 µg/disc, 100 g/ha worked out at 100%.
`CC(NC(=O)c1cc(Cl)cc(Br)c1)c1nccnc1-c1nccs1` (racemic) [Example I-54, (rac)-3-Bromo-5-chloro-N-{1-[3-(1,3-thiazol-2-yl)pyrazin-2-yl]ethyl}benzamide]: in assay [1], the “nematicidal activity” value is 90%. Further, the pest or weed control at 5 µg/cm2, 500 g/ha stood at 90% in assay [3] and 80% in assay [8]. Besides, the pest or weed control at 32 µg/disc, 100 g/ha in assay [4] came to 100%.
Compound `CC(NC(=O)c1cncc(C(F)(F)F)c1)c1nccnc1-c1ncccn1` (racemic) [Example I-9, (rac)-N-(1-(3-(Pyrimidin-2-yl)pyrazin-2-yl)ethyl)-5-(trifluoromethyl)nicotinamide] yielded a mortality at 100 g/ha in assay [9] of 90%. Besides, in assay [5], the pest or weed control at 0.004 mg turned out to be 100%. Further, the pest or weed control at 1 µg/cm2, 100 g/ha in [3] came to 100%. Also, the figures for the pest or weed control at 5 µg/cm2, 500 g/ha in [3] and in assay [8] were 100% and 80%, respectively. For the same compound, the mortality at 4 mg/m2 in assay [10] (setting [12]) and in assay [11] (setting [12]) was 80 to 100% throughout. The mortality at 20 mg/m2 in assay [10] (setting [13]) and in assay [11] (setting [13]) was 80 to 100% throughout. This compound also registered a mortality at 100 ppm in [7] of 80%.
In the case of `CC(NC(=O)c1cc(Br)cc(C#N)c1)c1nccnc1-c1nccs1` (racemic) [Example I-55, (rac)-3-Bromo-5-cyano-N-{1-[3-(1,3-thiazol-2-yl)pyrazin-2-yl]ethyl}benzamide], the “nematicidal activity” value in assay [1] was 100%. The compound further displayed a mortality at 100 ppm in assay [7] of 100%.
